This note sets out measurements from patent US9809542B2, “Spiroheterocyclically substituted tetramic acid derivatives” (BAYER INTELLECTUAL PROPERTY GMBH, priority 2010, dated 2017).

Common to all, as to assay type: in vivo
In one experiment the test system is Lolium multiflorum. Description: Herbicidal pre-emergence action. As to conditions: pre-emergence method, 320 g of a.i./ha; about 3 weeks. An excerpt:
(§1) 1. Herbicidal Pre-Emergence Action
(§2) • Seeds of monocotyledonous and dicotyledonous weed and crop plants are placed in sandy loam in wood fibre pots and covered with soil. The test compounds, formulated in the form of wettable powders (WP), are then, as aqueous suspension with a water application rate of 600 l/ha (converted), with 0.2% of wetting agent added, applied to the surface of the covering soil in various dosages. • After the treatment, the pots are placed in a greenhouse and kept under good growth conditions for the test plants. The visual assessment of the emergence damage on the test plants is carried out after a trial period of about 3 weeks by comparison with untreated controls (herbicidal effect in %: 100% effect=the plants have died, 0% effect=like control plants). • In addition to the compounds mentioned above, the following compounds, applied by the pre-emergence method at 320 g of a.i./ha, show an efficacy of 90% against Lolium multiflorum and Setaria viridis: I-1-a-1 • In addition to the compounds mentioned above, the following compounds, applied by the pre-emergence method at 320 g of a.i./ha, show an efficacy of 100% against Echinocloa crus-galli: I-a-2, I-b-1, I-b-2, I-c-2 2. Herbicidal Post-Emergence Action • Seeds of monocotyledonous and dicotyledonous weed and crop plants are placed in sandy loam in wood fibre pots, covered with soil and cultivated in a greenhouse under good growth conditions. 2-3 weeks after sowing, the test plants are treated at the one-leaf stage. The test compounds, formulated as wettable powders (WP), are, in various dosages at a water application rate of 600 l/ha (converted), with 0.2% of wetting agent added, sprayed onto the green parts of the plants. After the test plants have been kept in the greenhouse under optimum growth conditions for about 3 weeks, the effect of the preparations is rated visually in comparison to untreated controls (herbicidal effect in %: 100% effect=the plants have died, 0% effect=like control plants). • In addition to the compounds mentioned above, the following compounds, applied by the post-emergence method at 80 g/ha, show an efficacy of 90% against Echinocloa crus-galli and Lolium multiflorum: I-a-3, I-a-4, I-a-5.

For the next experiment, the system named is Setaria viridis. Description: Herbicidal pre-emergence action. As to conditions: pre-emergence method, 320 g of a.i./ha; about 3 weeks.
Excerpt: as §1, §2

The test system of experiment [1] is green peach aphid (Myzus persicae). Kind of experiment: Myzus persicae test, activity boost by ammonium salts in combination with penetrants. As to conditions: bell pepper plants; for Kill rate after 6 days: no additive. The protocol: Example 9: Activity Boost by Ammonium Salts in Combination with Penetrants
Solvent: 7 parts by weight of dimethylformamide
Emulsifier: 2 parts by weight of alkylaryl polyglycol ether
To produce a suitable preparation of active compound, 1 part by weight of active compound is mixed with the stated amounts of solvent and emulsifier, and the concentrate is diluted with water to the desired concentration. For application with ammonium salts and penetrants (rapeseed oil methyl ester 500 EW) these are in each case added in a concentration of 1000 ppm of a.i. to the spray liquor.
Bell pepper plants (Capsicum annuum) heavily infested by the green peach aphid (Myzus persicae) are sprayed to runoff point with the preparation of active compound at the desired concentration. After the desired period of time, the kill in % is determined. 100% means that all animals have been killed; 0% means that none of the animals have been killed.

Another experiment concerns Echinocloa crus-galli. Kind of experiment: Herbicidal pre-emergence action. Conditions: pre-emergence method, 320 g of a.i./ha; about 3 weeks.
Excerpt: as §1, §2

The subject of experiment [2] is greenhouse red spidermite (Tetranychus urticae). Kind of experiment: Tetranychus test OP-resistant (TETRUR spray treatment). Conditions: application rate 100 g/ha, bean leaf discs, after 6 days. As to the method:
Tetranychus Test OP-Resistant (TETRUR Spray Treatment)
Solvents: 78.0 parts by weight of acetone
• 1.5 parts by weight of dimethylformamide Emulsifier: 0.5 part by weight of alkylaryl polyglycol ether
To produce a suitable preparation of active compound, 1 part by weight of active compound is mixed with the stated amounts of solvents and emulsifier, and the concentrate is diluted with emulsifier-containing water to the desired concentration. Discs of bean leaves (Phaseolus vulgaris) which are infested by all stages of the greenhouse red spidermite (Tetranychus urticae) are sprayed with an active compound preparation of the desired concentration.
After 6 days, the effect in % is determined. 100% means that all spidermites have been killed; 0% means that none of the spidermites have been killed.

As for `CON1CCC2(CC1)NC(=O)C(c1c(C)ccc(-c3ccc(F)cc3)c1C)=C2O` [I-a-1], in the experiment on Lolium multiflorum, the “efficacy (herbicidal effect in %)” value is recorded as 90%. Also, the “efficacy (herbicidal effect in %)” value in the experiment on Setaria viridis is on record as 90%. In experiment [1] (4 ppm), the “Kill rate after 6 days, +AS (1000 ppm)” value is given as 30%; the “Kill rate after 6 days, +RME (1000 ppm)” value turned out to be 55%; the “Kill rate after 6 days, +RME + AS (1000 ppm each)” value (from here on “Kill rate … (1000 ppm each)”) stood at 100%; the “Kill rate after 6 days” value is 0%. Moreover, in experiment [1] (20 ppm), the “Kill rate after 6 days, +AS (1000 ppm)” value turned out to be 90%; the “Kill rate after 6 days, +RME (1000 ppm)” value is 95%; the “Kill rate … (1000 ppm each)” value turned out to be 100%; the “Kill rate after 6 days” value is 60%.

As to `CCON1CCC2(CC1)NC(=O)C(c1c(C)ccc(-c3ccc(F)cc3)c1C)=C2O` [I-a-2], the “efficacy (herbicidal effect in %)” value in the experiment on Echinocloa crus-galli amounted to 100%. For the same compound, the “efficacy (effect in %, spidermites killed)” value in experiment [2] was found to be 100%. Besides, in experiment [1] (0.8 ppm), the “Kill rate after 6 days, +AS (1000 ppm)” value came to 0%; the “Kill rate after 6 days, +RME (1000 ppm)” value is 0%; the “Kill rate … (1000 ppm each)” value turned out to be 40%; the “Kill rate after 6 days” value is given as 0%. Further, in experiment [1] (4 ppm), the “Kill rate after 6 days, +AS (1000 ppm)” value came to 20%; the “Kill rate after 6 days, +RME (1000 ppm)” value was 95%; the “Kill rate … (1000 ppm each)” value came to 95%; the “Kill rate after 6 days” value worked out at 0%.
